Laboratory results as given in article PMC12267423, “Comparisons of pharmacokinetics of glimepiride in combination with Ojeok-san versus glimepiride alone: an open-label, one-sequence, two-treatment controlled clinical study” (Scientific Reports, 2025).
Where two headings read alike, the source gives them in different places. Values belong to the molecule of their own block, whether it stands above or below them.

Key:
[1] = cited from earlier work
healthy male subjects = test: Safety and tolerability (adverse events) in healthy male subjects; format: in vivo, human
Method: Safety and tolerability were assessed during the study period. The occurrence of AEs was monitored, and the investigators assessed its causal relationship with the study drugs. Vital signs, 12-lead electrocardiography (ECGs), physical examinations, and laboratory tests were performed and reviewed.

glucose = test system: glucose; set-up: method as in PMID 33262578; settings: 4 mg glimepiride, 75 g glucose load; cited from earlier work
[2] = test system: serum glucose concentration; test: Oral glucose tolerance test (pharmacodynamics) before and after glimepiride with or without OJS; settings: glucose 50 g (glimepiride alone), 75 g (with OJS)
Method: Oral glucose tolerance tests (OGTT) were performed before and after glimepiride administration on days 1 and 9, and days 2 and 10, respectively, to assess the PD effects (Supplementary information).
The PD parameters included the maximum serum glucose concentration (Gmax), 2-hour serum glucose level (PP2), and area under the glucose concentration-time curve for 4 h after glucose administration (AUG0–4 h), which was calculated using the linear trapezoidal rule. The change values of Gmax, PP2, and AUG0–4 h were calculated by subtracting the baseline serum glucose concentrations from the corresponding post-administration values at each time point, following glimepiride administration with or without OJS. The maximum of these difference values was defined as the change in Gmax, and the value at 2 h as the change in PP2. The area under the curve from 0 to 4 h was calculated using linear trapezoidal method and defined as change in AUG0 − 4 h. Additionally, the percent change (%change) was calculated as: 100×(change value / baseline value).
The initial protocol stipulated the administration of 75 g of glucose; however, due to a lapse in protocol adherence by the administering clinical research nurse, which involved an incorrect glucose dosage of 50 g stemming from a failure to accurately verify the medication label, a deviation occurred (a report of this protocol violation was filed with the Institutional Review Board). Consequently, the plasma glucose assessment post-glimepiride monotherapy was conducted using 50 g of glucose, whereas the evaluation of the combined effect of glimepiride and OJS during the second admission utilized 75 g of glucose, introducing variance in glucose exposure across the two evaluations.

[3] = Pharmacokinetics of glimepiride and M1 in plasma, glimepiride alone versus with Ojeok-san, clinical crossover study; settings: for Reduction of mean Cmax with OJS compared to glimepiride monotherapy: absorption phase; for CL/F / t1/2,0–24 h / AUC(0-t) / half-life / t1/2,0–48 h: mean ± SD; for Tmax: median (min–max); for Geometric mean ratio of AUC0–24 h (%, 90% CI) / Geometric mean ratio of AUC0–48 h (%, 90% CI) / Geometric mean ratio of AUCinf (%, 90% CI) / Geometric mean ratio of Cmax (%, 90% CI): glimepiride and OJS co-administration to glimepiride alone
Method: (§1) Glimepiride (4 mg) was orally administered once daily on days 1–2 during period 1. Subsequently, the 4.35 g/pack of OJS was orally administered three times a day on days 4–11 during period 2, and glimepiride (4 mg) was co-administered once a day on days 9–10 during period 2. Glimepiride (4 mg) was administered at approximately 12:00 PM on days 1 and 9 and at approximately 8:00 AM on days 2 and 10. The 4.35 g/pack of OJS was administered thrice a day at 7:00–10:00 AM, 12:00–03:00 PM, and 6:00–9:00 PM on days 4–11. However, during hospitalization, OJS was administered at approximately 7:00 AM on days 9–10, just 1 h before glimepiride administration.
(§2) For the PK analysis of glimepiride, blood samples were collected immediately before the glimepiride administration on days 1 and 9 on the first day of each period. On days 2 and 10, blood samples were collected immediately before glimepiride administration (0 h) and 0.25, 0.5, 1, 1.5, 2, 2.5, 3, 3.5, 4, 5, 6, 8, 12, 15, 24, and 48 h after glimepiride administration.
(§3) The analyte was separated using a YMC hydrosphere C18 (50 × 2.0 mm, 3 μm; YMC, USA) at 40 ℃. The mobile phase consists of 5 mM ammonium formate and 100% acetonitrile (20:80, v/v) with a flow rate of 180 µL/min. The compounds were detected in the positive mode using an electrospray ionization source. […] A linear response of glimepiride was shown in the range of 2 to 1000 ng/mL (r^2 ≥ 0.9970), and the lower limit of quantification was determined as 2 ng/mL.
(§4) PK parameters were calculated using the noncompartmental method in Phoenix WinNonlin 8.3 (Certara USA Inc., Princeton, NJ, USA). […] The terminal elimination rate constant (kz) was estimated from the regression of the log-linear decrease in the plasma concentration-time profile. The terminal elimination half-life (t1/2) was calculated as the natural logarithm of 2 divided by kz. The area under the plasma concentration-time curve (AUC) from dosing to 24 h post-dosing (AUC0–24 h) and AUC0–48 h from dosing to 48 h post-dosing were calculated using the linear/log trapezoidal rule. The AUC from 0 to infinity (AUCinf) was calculated as AUC0–24 h + C24 / kz, where kz is the terminal elimination rate constant estimated from linear regression of the terminal phase of the log-linear plot of the plasma concentration-time curve. The metabolic ratio was calculated by dividing the M1 AUC0–24 h by glimepiride AUC0–24 h.
(§5) All statistical analyses were performed using SAS 9.4 (SAS Institute Inc. Cary, NC, USA). Descriptive statistics were calculated for continuous variables.

[4] = human, in vivo, 4 mg
Method: as §1, §2, §3, §4, §5

[5] = glimepiride administered with a meal
[6] = OGTT after glimepiride, mean ± SD
[7] = glimepiride 4 mg qd + OJS 4.35 g tid, N = 13
[8] = glimepiride 4 mg qd alone, N = 16
[9] = male, human, plasma, oral, 4 mg

Reduction of mean Cmax with OJS compared to glimepiride monotherapy [3]: approximately 16.86%
CL/F [3, 7]: 3.68 ± 1.54 L/h
Tmax ([3]; glimepiride 4 mg qd alone, day 2, plasma, N = 16): 4.5 (2.0–5.0) h
CL/F [3, 8]: 3.28 ± 1.16 L/h
t1/2,0–24 h [3, 8]: 8.53 ± 4.69 h
Geometric mean ratio of AUC0–24 h (%, 90% CI) [3]: 86.43 (77.56–96.31) %
Geometric mean ratio of AUC0–48 h (%, 90% CI) [3]: 86.98 (77.49–97.63) %
Geometric mean ratio of AUCinf (%, 90% CI) [3]: 89.15 (81.72–97.26) %
Geometric mean ratio of Cmax (%, 90% CI) [3]: 83.14 (69.96–98.81) %
Geometric mean ratio of AUC0–24 h (%, 90% CI) ([3]; listed as glimepiride): 86.43 (77.56, 96.31) %
Geometric mean ratio of Cmax (%, 90% CI) ([3]; listed as glimepiride): 83.14 (69.96, 98.81) %
AUC(0-inf) [3, 9]: 1380 ± 507 ng·h/mL
Cmax [3, 9]: 251 ± 87 ng/mL
AUC(0-t) ([3]; male, human, plasma, oral, 4 mg, AUC0–24 h, glimepiride 4 mg qd alone, N = 16): 1280 ± 483 ng·h/mL
AUC(0-t) ([3]; male, human, plasma, oral, 4 mg, AUC0–48 h, glimepiride 4 mg qd alone, N = 16): 1300 ± 519 ng·h/mL
Tmax ([3]; male, human, plasma, oral, 4 mg, Tmax, glimepiride 4 mg qd alone, day 2, plasma, N = 16): 4.3 h
half-life ([3]; male, human, plasma, oral, 4 mg, t1/2,0–24 h, glimepiride 4 mg qd alone, N = 16): 8.5 h
half-life ([3]; male, human, plasma, oral, 4 mg, t1/2,0–48 h, glimepiride 4 mg qd alone, N = 16): 8.73 ± 4.78 h
AUC(0-t) ([3]; male, human, plasma, oral, AUC0–24 h, glimepiride 4 mg qd + OJS 4.35 g tid, N = 13): 1130 ± 406 ng·h/mL
AUC(0-t) ([3]; male, human, plasma, oral, AUC0–48 h, glimepiride 4 mg qd + OJS 4.35 g tid, N = 13): 1160 ± 468 ng·h/mL
Tmax ([3]; male, human, plasma, oral, Tmax, glimepiride 4 mg qd + OJS 4.35 g tid, day 10, plasma, N = 13): 5 h
half-life ([3]; male, human, plasma, oral, t1/2,0–24 h, glimepiride 4 mg qd + OJS 4.35 g tid, N = 13): 10.2 ± 4.84 h
half-life ([3]; male, human, plasma, oral, t1/2,0–48 h, glimepiride 4 mg qd + OJS 4.35 g tid, N = 13): 9.33 ± 3.02 h
Metabolic ratio (M1 AUC0–24 h / glimepiride AUC0–24 h), co-administration versus glimepiride alone ([3]; p = 0.1209): not significantly different
SMILES: CCC1=C(C)CN(C(=O)NCCc2ccc(S(=O)(=O)NC(=O)N[C@H]3CC[C@H](C)CC3)cc2)C1=O [Glimepiride]
Metabolites recovered in the urine [1]: approximately 60%
Reduction of mean AUC ([1]; co-administered with aspirin): 34%
Reduction of mean Cmax ([1]; co-administered with aspirin): 4%
Time to peak plasma concentrations ([1]; following oral administration): 2 to 3 h
Decrease of mean AUC [1, 5]: 9%
Decrease of mean Cmax [1, 5]: 8%
Reduction of AUC ([1]; with colesevelam): 18%
Reduction of Cmax ([1]; with colesevelam): 8%
Subjects reporting adverse events (healthy male subjects; period 1 (glimepiride alone), 6 out of 16 subjects): 37.5%
Subjects reporting adverse events (healthy male subjects; period 2 (OJS with glimepiride), 2 out of 13 subjects): 15.4%
AUG0–3 h after glimepiride treatment (glucose): 291.8 ± 48.5 mg·h/dL
Gmax after glimepiride treatment (glucose): 134.4 ± 26.9 mg/dL
Reduction of Gmax (glucose): 68.9 ± 25.1 mg/dL
PP2, Post- ([2]; 2-hour serum glucose after glimepiride, mean ± SD): 95.75 ± 29.96 mg/dL
AUG0–4 h % Change ([2]; 100×(change value / baseline value)): 16.15 ± 5.07%
AUG0–3h, Post- [2, 6]: 334.12 ± 44.24 mg·h/dL
Gmax, Post- [2, 6]: 173.88 ± 20.38 mg/dL
AUG0–3h % Change [2]: 15.54 ± 5.82%
Gmax % Change [2]: 25.48 ± 8.23%
PP2 % Change [2]: 16.88 ± 14.00%
AUG0–3h Change ([2]; post- versus pre-glimepiride): 61.07 ± 29.20 mg·h/dL
AUG0–4 h Change ([2]; post- versus pre-glimepiride): 77.01 ± 32.47 mg·h/dL
Gmax Change ([2]; post- versus pre-glimepiride): 45.63 ± 16.39 mg/dL
PP2 Change ([2]; post- versus pre-glimepiride): 17.94 ± 13.67 mg/dL

AUC0–24 h [4]: 237.85 ± 61.69 ng·h/mL
AUC0–48 h [4]: 243.05 ± 70.10 ng·h/mL
AUCinf [4]: 258.17 ± 67.99 ng·h/mL
Cmax [4]: 32.61 ± 8.08 ng/mL
Tmax [4]: 5.0 (3.0–6.0) h
Reduction of mean Cmax with OJS compared to glimepiride monotherapy [3]: ~14.67%
CL/F [3, 7]: 17.13 ± 4.89 L/h
t1/2,0–24 h [3, 7]: 8.04 ± 2.95 h
t1/2,0–48 h [3, 7]: 8.02 ± 2.80 h
CL/F [3, 8]: 16.40 ± 4.00 L/h
t1/2,0–24 h [3, 8]: 6.73 ± 1.35 h
t1/2,0–48 h [3, 8]: 7.08 ± 1.97 h
Geometric mean ratio of AUC0–24 h (%, 90% CI) [3]: 91.77 (85.53–98.46) %
Geometric mean ratio of AUC0–48 h (%, 90% CI) [3]: 92.48 (85.29–100.26) %
Geometric mean ratio of AUCinf (%, 90% CI) [3]: 95.05 (89.10–101.40) %
Geometric mean ratio of Cmax (%, 90% CI) [3]: 85.33 (77.77–93.62) %
SMILES: CCC1=C(C)CN(C(=O)NCCc2ccc(S(=O)(=O)NC(=O)NC3CCC(CO)CC3)cc2)C1=O (stereo not drawn) [M1, hydroxy glimepiride]

SMILES: Cc1ccc(-c2cc(C(F)(F)F)nn2-c2ccc(S(N)(=O)=O)cc2)cc1 [celecoxib]
Decrease of AUC ([1]; co-administration with OJS): 11.5%
Decrease of Cmax ([1]; co-administration with OJS): 27.5%
